Our source for the benchmark concentration values is the supplement of paper PMC9151546.

Counter-ions that a name gives are not always drawn.

The test system of one assay is CHO-K1. As to the kind of experiment: benchmark concentration for 30% increase in micronucleus frequency (BMC30); higher = less potent clastogen. To be noted: S9 metabolic activation: with S9. The method, then: (§1)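 Benchmark concentration modelling (PROAST, Hill/exponential model families) of the 19-concentration flow-cytometric micronucleus assay in CHO-K1 cells, with and without rat liver S9. Only non-cytotoxic and adequate (relative survival >=40%) concentrations were used. BMR was a 30% increase in %MN (BMC30) or a 60% increase in %hypodiploid (BMC60) over control.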
Take `O=C1C2(Cl)C3(Cl)C4(Cl)C(Cl)(Cl)C5(Cl)C3(Cl)C1(Cl)C5(Cl)C24Cl` (stereo not drawn) [Kepone]: the benchmark concentration came out at 53 µM.
Consider `C[C@@H]1C[C@@H]([C@H](O)CC2CC(=O)NC(=O)C2)C(=O)[C@@H](C)C1` [Cycloheximide], for which the benchmark concentration is less than 4.5 µM.
The same measure, in the same setting: under `CCOc1ccc2c(c1)C(C)=CC(C)(C)N2` [Ethoxyquin] stands 86 µM.
Consider `COCCOCCOC` [Bis(2-methoxyethyl) ether], for which the benchmark concentration came out at 72 µM.
The same measure, in the same setting: the value for `CCOCN(C(=O)CCl)c1c(C)cccc1CC` [Acetochlor] was 79 µM.
The same measure, in the same setting: under `Oc1cc(Cl)ccc1Oc1ccc(Cl)cc1Cl` [Triclosan] stands 40 µM; under `CCCOC(=O)c1cc(O)c(O)c(O)c1` [Propyl gallate], 24 µM; under `CC(C)(OOC(C)(C)c1ccccc1)c1ccccc1` [Dicumyl peroxide], 88 µM.
Consider `CC(=O)N1CCN(c2ccc(OCC3COC(Cn4ccnc4)(c4ccc(Cl)cc4Cl)O3)cc2)CC1` (stereo not drawn) [Ketoconazole], for which the benchmark concentration was 54 µM.
As to `C=CC(N)=O` [Acrylamide], the benchmark concentration was 47 µM.
`c1ccc2c(c1)oc1ccccc12` [Dibenzofuran] showed a benchmark concentration of 33 µM.
Still for that read-out and setting: the value for `O=C(c1ccc(OCCN2CCCCC2)cc1)c1c(-c2ccc(O)cc2)sc2cc(O)ccc12` [Raloxifene hydrochloride] was 70 µM.

The assay is the same for the next values; noted with them: S9 metabolic activation: without S9.
`O=C1C2(Cl)C3(Cl)C4(Cl)C(Cl)(Cl)C5(Cl)C3(Cl)C1(Cl)C5(Cl)C24Cl` (stereo not drawn) [Kepone]: the benchmark concentration is 30 µM.
On the same count and under the same terms, the value for `CN(C)CCCN1c2ccccc2Sc2ccc(Cl)cc21` [Chlorpromazine hydrochloride] was 23 µM.
Same read-out and setting: the value for `O=S(=O)(O)C(F)(F)C(F)(F)C(F)(F)C(F)(F)C(F)(F)C(F)(F)C(F)(F)C(F)(F)F` [PFOS] was 18 µM; that for `CCOC(=O)c1ccc(O)cc1` [Ethylparaben] was 70 µM; that for `O=[N+]([O-])c1ccc(Oc2ccc(Cl)cc2Cl)cc1` [Nitrofen] was 77 µM.
Still for that read-out and setting: under `CCOc1ccc2c(c1)C(C)=CC(C)(C)N2` [Ethoxyquin] stands 55 µM.
Compound `CCOCN(C(=O)CCl)c1c(C)cccc1CC` [Acetochlor] had a benchmark concentration of 39 µM.
Still for that read-out and setting: the value for `Nc1ccc(Cl)cc1N` [4-Chloro-1,2-diaminobenzene] was 41 µM.
On the same count and under the same terms, under `CCCCCCCCn1sccc1=O` [Octhilinone] stands less than 4.5 µM.
Still for that read-out and setting: under `CCOC(=O)C(O)(c1ccc(Cl)cc1)c1ccc(Cl)cc1` [Chlorobenzilate] stands 47 µM; under `O=C1OC(c2ccc(O)cc2)(c2ccc(O)cc2)c2ccccc21` [Phenolphthalein], 22 µM.
`CCCCC(CC)COC(=O)CCCCC(=O)OCC(CC)CCCC` (stereo not drawn) [Di(2-ethylhexyl) adipate] had a benchmark concentration of 76 µM.
The same measure, in the same setting: under `CCCOC(=O)c1cc(O)c(O)c(O)c1` [Propyl gallate] stands 17 µM; under `Cc1ccc(O)c(C)c1` [2,4-Dimethylphenol], 79 µM; under `OCCOCCO` [Diethylene glycol], 79 µM.
The same measure, in the same setting: under `OCC1CO1` (stereo not drawn) [Glycidol] stands 99 µM; under `CC(C)(OOC(C)(C)c1ccccc1)c1ccccc1` [Dicumyl peroxide], 5.5 µM.
As to `O=c1c(-c2ccc(O)cc2)coc2cc(O)cc(O)c12` [Genistein], the benchmark concentration stood at 10 µM.
The same measure, in the same setting: the value for `O=C(c1ccc(OCCN2CCCCC2)cc1)c1c(-c2ccc(O)cc2)sc2cc(O)ccc12` [Raloxifene hydrochloride] was 28 µM; that for `CCCCCCCCCCCCCCCS(=O)(=O)Oc1ccccc1` [C10-21 sulfonic acids phenyl esters] was 130 µM.
In turn, `O=CCCCC=O` [Glutaraldehyde] gave a benchmark concentration of 28 µM.

A further assay relates to CHO-K1. As to the kind of experiment: benchmark concentration for 60% increase in hypodiploid frequency (BMC60); higher = less potent aneugen. To be noted: S9 metabolic activation: without S9. The method, then: as §1
`OCCC(F)(F)C(F)(F)C(F)(F)C(F)(F)C(F)(F)C(F)(F)C(F)(F)C(F)(F)F` [1,1,2,2-Tetrahydroperfluoro-1-decanol] yielded a benchmark concentration of 95 µM.
For the compound `CC(C)=CCC/C(C)=C/C=O` [3,7-Dimethyl-2,6-octadienal], the benchmark concentration is 28 µM.
The same measure, in the same setting: the value for `OCCNCCO` [Diethanolamine] was 84 µM.
On the same count and under the same terms, the value for `Cc1ccc([N+](=O)[O-])cc1C` [1,2-Dimethyl-4-nitrobenzene] was 89 µM; that for `COC(=O)CCCCC(=O)OC` [Dimethyl adipate] was 110 µM.
